The assay relates to MV-4-11 cells. The assay can be described thus: Gene expression microarray analysis (Affymetrix PrimeView) and GSEA. It is filed as cell-based, human. Also noted: RFU PODN (11730768_x_at) / Fold change /veh PODN (11730768_x_at) / RFU LINC00158 (11744669_a_at) / Fold change /veh LINC00158 (11744669_a_at) / RFU DUSP10 (11751237_a_at) / Fold change /veh DUSP10 (11751237_a_at) / RFU ID3 (11757404_x_at) / Fold change /veh ID3 (11757404_x_at) / RFU PLEKHG5 (11737974_s_at) / Fold change /veh PLEKHG5 (11737974_s_at) / RFU LRRC4B (11730491_at) / Fold change /veh LRRC4B (11730491_at) / RFU GIMAP4 (11747438_a_at) / Fold change /veh GIMAP4 (11747438_a_at) / RFU KRT8 (11758183_x_at) / Fold change /veh KRT8 (11758183_x_at) / RFU CNN1 (11734310_a_at) / Fold change /veh CNN1 (11734310_a_at) / RFU VPS37D (11726825_at) / Fold change /veh VPS37D (11726825_at) / RFU C10orf10 (11716522_x_at) / Fold change /veh C10orf10 (11716522_x_at) / RFU KIR2DL2 /// KIR2DL4 /// KIR2DL5A /// KIR2DL5B /// KIR2DS1 /// KIR2DS2 /// KIR2DS3 /// KIR2DS4 /// KIR3DL3 /// KIR3DL3 /// KIR3DS1 (11738374_at) / Fold change /veh KIR2DL2 /// KIR2DL4 /// KIR2DL5A /// KIR2DL5B /// KIR2DS1 /// KIR2DS2 /// KIR2DS3 /// KIR2DS4 /// KIR3DL3 /// KIR3DL3 /// KIR3DS1 (11738374_at) / RFU C1QL1 (11718748_at) / Fold change /veh C1QL1 (11718748_at) / RFU TMPRSS4 (11747572_a_at) / Fold change /veh TMPRSS4 (11747572_a_at) / RFU HAMP (11756126_x_at) / Fold change /veh HAMP (11756126_x_at) / RFU RNFT2 (11725882_a_at) / Fold change /veh RNFT2 (11725882_a_at) / RFU NR4A2 (11747474_a_at) / Fold change /veh NR4A2 (11747474_a_at) / RFU ABCC12 (11746883_a_at) / Fold change /veh ABCC12 (11746883_a_at) / RFU TMEM136 (11760407_x_at) / Fold change /veh TMEM136 (11760407_x_at) / RFU CLDN22 /// WWC2 (11732394_at) / Fold change /veh CLDN22 /// WWC2 (11732394_at) / RFU HLA-DPB1 (11760878_x_at) / Fold change /veh HLA-DPB1 (11760878_x_at) / RFU SPINT1 (11716480_a_at) / Fold change /veh SPINT1 (11716480_a_at) / RFU GAP43 (11754022_s_at) / Fold change /veh GAP43 (11754022_s_at) / RFU A4GNT (11735810_at) / Fold change /veh A4GNT (11735810_at) / RFU PRB3 (11715151_x_at) / Fold change /veh PRB3 (11715151_x_at) / RFU TUBB4B (11761932_at) / Fold change /veh TUBB4B (11761932_at) / RFU CAPN14 (11732068_a_at) / Fold change /veh CAPN14 (11732068_a_at) / RFU TMCC2 (11721928_a_at) / Fold change /veh TMCC2 (11721928_a_at) / RFU IRGQ (11745062_a_at) / Fold change /veh IRGQ (11745062_a_at) / RFU FAM174B (11720279_a_at) / Fold change /veh FAM174B (11720279_a_at) / RFU TMPRSS4 (11748680_a_at) / Fold change /veh TMPRSS4 (11748680_a_at) / RFU FAM212B (11763350_a_at) / Fold change /veh FAM212B (11763350_a_at) / RFU PLEKHG5 (11743358_a_at) / Fold change /veh PLEKHG5 (11743358_a_at) / RFU ZSCAN30 (11745921_a_at) / Fold change /veh ZSCAN30 (11745921_a_at) / RFU CMKLR1 (11741424_a_at) / Fold change /veh CMKLR1 (11741424_a_at) / RFU LOC101060620 /// MAPK8IP1 (11723275_at) / Fold change /veh LOC101060620 /// MAPK8IP1 (11723275_at) / RFU SPTSSB (11747773_x_at) / Fold change /veh SPTSSB (11747773_x_at) / RFU PRSS12 (11739890_at) / Fold change /veh PRSS12 (11739890_at) / RFU BIN1 (11741810_x_at) / Fold change /veh BIN1 (11741810_x_at) / RFU WNT11 (11732464_a_at) / Fold change /veh WNT11 (11732464_a_at) / RFU C10orf10 (11716521_a_at) / Fold change /veh C10orf10 (11716521_a_at) / RFU C5orf56 (11738089_at) / Fold change /veh C5orf56 (11738089_at) / RFU CYB561 (11721691_x_at) / Fold change /veh CYB561 (11721691_x_at) / RFU ANKRD19P (11752326_a_at) / Fold change /veh ANKRD19P (11752326_a_at) / RFU OR2T12 /// OR2T33 /// OR2T8 (11738714_s_at) / Fold change /veh OR2T12 /// OR2T33 /// OR2T8 (11738714_s_at) / RFU VCAN (11748164_a_at) / Fold change /veh VCAN (11748164_a_at) / RFU JSRP1 (11732532_at) / Fold change /veh JSRP1 (11732532_at) / RFU KRTAP10-11 (11738290_x_at) / Fold change /veh KRTAP10-11 (11738290_x_at) / RFU MYO3A (11730013_a_at) / Fold change /veh MYO3A (11730013_a_at) / RFU EBF3 (11725865_a_at) / Fold change /veh EBF3 (11725865_a_at) / RFU CAMK2N1 (11719241_x_at) / Fold change /veh CAMK2N1 (11719241_x_at) / RFU C5orf56 (11738088_a_at) / Fold change /veh C5orf56 (11738088_a_at) / RFU OLFML3 (11715873_a_at) / Fold change /veh OLFML3 (11715873_a_at) / RFU LOC100653217 /// NTM (11731650_a_at) / Fold change /veh LOC100653217 /// NTM (11731650_a_at) / RFU MAPK11 (11762145_a_at) / Fold change /veh MAPK11 (11762145_a_at) / RFU FIZ1 (11724087_x_at) / Fold change /veh FIZ1 (11724087_x_at) / RFU OASL (11726364_x_at) / Fold change /veh OASL (11726364_x_at) / RFU SOX15 (11748057_x_at) / Fold change /veh SOX15 (11748057_x_at) / RFU CD79A (11719716_a_at) / Fold change /veh CD79A (11719716_a_at) / RFU HIST1H1D (11736915_at) / Fold change /veh HIST1H1D (11736915_at) / RFU CASKIN2 (11723855_a_at) / Fold change /veh CASKIN2 (11723855_a_at) / RFU LOC730098 (11760151_x_at) / Fold change /veh LOC730098 (11760151_x_at) / RFU OR4N2 (11742367_at) / Fold change /veh OR4N2 (11742367_at) / RFU PRRT2 (11749266_a_at) / Fold change /veh PRRT2 (11749266_a_at) / RFU SNX32 (11753110_a_at) / Fold change /veh SNX32 (11753110_a_at) / RFU CDHR5 (11726645_a_at) / Fold change /veh CDHR5 (11726645_a_at) / RFU RCAN1 (11760418_a_at) / Fold change /veh RCAN1 (11760418_a_at) / RFU FAM167A (11723789_a_at) / Fold change /veh FAM167A (11723789_a_at) / RFU FAM26E (11764081_at) / Fold change /veh FAM26E (11764081_at) / RFU ISYNA1 (11749810_s_at) / Fold change /veh ISYNA1 (11749810_s_at) / RFU ACY1 (11761880_at) / Fold change /veh ACY1 (11761880_at) / RFU 11764098_at / Fold change /veh 11764098_at / RFU SAMD14 (11745864_x_at) / Fold change /veh SAMD14 (11745864_x_at) / RFU NPB (11741838_a_at) / Fold change /veh NPB (11741838_a_at) / RFU TMPRSS6 (11731388_a_at) / Fold change /veh TMPRSS6 (11731388_a_at) / RFU KRTAP10-2 (11738614_at) / Fold change /veh KRTAP10-2 (11738614_at) / RFU ARHGAP8 /// PRR5-ARHGAP8 (11727945_x_at) / Fold change /veh ARHGAP8 /// PRR5-ARHGAP8 (11727945_x_at) / RFU KRTAP5-7 /// NADSYN1 (11734609_at) / Fold change /veh KRTAP5-7 /// NADSYN1 (11734609_at) / RFU RASL12 (11751679_a_at) / Fold change /veh RASL12 (11751679_a_at) / RFU CDKN2B (11736163_a_at) / Fold change /veh CDKN2B (11736163_a_at) / RFU PRF1 (11729649_at) / Fold change /veh PRF1 (11729649_at) / RFU, ZNF638 /// ZNF638-IT1 / Fold change vs veh, ZNF638 /// ZNF638-IT1 / RFU, PANK3 / Fold change vs veh, PANK3 / RFU, SH3YL1 / Fold change vs veh, SH3YL1 / RFU, ZEB2 / Fold change vs veh, ZEB2 / RFU, NRIP1 / Fold change vs veh, NRIP1 / RFU, PTTG1IP / Fold change vs veh, PTTG1IP / RFU, CAPN2 / Fold change vs veh, CAPN2 / RFU, MED14 / Fold change vs veh, MED14 / RFU, SNORA58 / Fold change vs veh, SNORA58 / RFU, C1orf63 / Fold change vs veh, C1orf63 / RFU, LRRFIP1 / Fold change vs veh, LRRFIP1 / RFU, NDUFAF7 / Fold change vs veh, NDUFAF7 / RFU, SLC12A2 / Fold change vs veh, SLC12A2 / RFU, IBTK / Fold change vs veh, IBTK / RFU, ESF1 / Fold change vs veh, ESF1 / Fold change vs veh, TMEM50B / RFU, TAOK1 / Fold change vs veh, TAOK1 / RFU, ACBD3 / Fold change vs veh, ACBD3 / RFU, TMA16 / Fold change vs veh, TMA16 / RFU, RWDD3 / Fold change vs veh, RWDD3 / RFU, BCAT1 / Fold change vs veh, BCAT1 / RFU, EDEM3 / Fold change vs veh, EDEM3 / RFU, TMEM33 / Fold change vs veh, TMEM33 / RFU, WDR75 / Fold change vs veh, WDR75 / RFU, AHCTF1 / Fold change vs veh, AHCTF1 / RFU, TFRC / Fold change vs veh, TFRC / RFU, ZDHHC17 / Fold change vs veh, ZDHHC17 / RFU, NOM1 / Fold change vs veh, NOM1 / RFU, ARL8B / Fold change vs veh, ARL8B / RFU, ZBTB11 / Fold change vs veh, ZBTB11 / RFU, TAMM41 / Fold change vs veh, TAMM41 / RFU, KIAA1704 /// LOC100996395 / Fold change vs veh, KIAA1704 /// LOC100996395 / RFU, ING1 / Fold change vs veh, ING1 / RFU, TRMT61B / Fold change vs veh, TRMT61B / RFU, FUBP3 / Fold change vs veh, FUBP3 / RFU, TP53 / Fold change vs veh, TP53 / RFU, TNKS2 / Fold change vs veh, TNKS2 / RFU, ZFP14 / Fold change vs veh, ZFP14 / RFU, ACTR2 / Fold change vs veh, ACTR2 / RFU, PPP3R1 / Fold change vs veh, PPP3R1 / RFU, PIK3R1 / Fold change vs veh, PIK3R1 / RFU, HNRNPA1 / Fold change vs veh, HNRNPA1 / RFU, RNF170 / Fold change vs veh, RNF170 / RFU, ZNF28 / Fold change vs veh, ZNF28 / RFU, RNGTT / Fold change vs veh, RNGTT / RFU, OGT / Fold change vs veh, OGT / RFU, BRD1 / Fold change vs veh, BRD1 / RFU, MARS / Fold change vs veh, MARS / RFU, ZNF655 / Fold change vs veh, ZNF655 / RFU, FAHD1 / Fold change vs veh, FAHD1 / RFU, BDP1 / Fold change vs veh, BDP1 / RFU, LRRCC1 / Fold change vs veh, LRRCC1 / RFU, ARID1A / Fold change vs veh, ARID1A / RFU, ZNF146 / Fold change vs veh, ZNF146 / RFU, ZNF330 / Fold change vs veh, ZNF330 / RFU, GPN3 / Fold change vs veh, GPN3 / RFU, C9orf123 / Fold change vs veh, C9orf123 / RFU, N4BP2L2 / Fold change vs veh, N4BP2L2 / RFU, ARFIP1 / Fold change vs veh, ARFIP1 / RFU, FAM179B / Fold change vs veh, FAM179B / RFU, BCL10 / Fold change vs veh, BCL10 / RFU, UHRF1BP1L / Fold change vs veh, UHRF1BP1L / RFU, BET1 / Fold change vs veh, BET1 / RFU, CNOT2 / Fold change vs veh, CNOT2 / RFU, ZNF268 / Fold change vs veh, ZNF268 / Fold change vs veh, ZNF507 / RFU, DGCR2 / Fold change vs veh, DGCR2 / RFU, WDSUB1 / Fold change vs veh, WDSUB1 / Fold change vs veh, HSP90B1 /// MIR3652 / RFU, ADSS / Fold change vs veh, ADSS / RFU, GK / Fold change vs veh, GK / RFU, ZNF148 / Fold change vs veh, ZNF148 / RFU, TAF9 / Fold change vs veh, TAF9 / RFU, SLC1A5 / Fold change vs veh, SLC1A5 / RFU, SLMO2 / Fold change vs veh, SLMO2 / RFU, ABCC4 / Fold change vs veh, ABCC4 / RFU, LOC101060439 /// RAP1B / Fold change vs veh, LOC101060439 /// RAP1B / RFU, RFX7 / Fold change vs veh, RFX7 / RFU, GTPBP10 / Fold change vs veh, GTPBP10 / RFU, CNEP1R1 / Fold change vs veh, CNEP1R1 / RFU, BIVM-ERCC5 /// ERCC5 / Fold change vs veh, BIVM-ERCC5 /// ERCC5 / RFU, ILF3 / Fold change vs veh, ILF3 / RFU 11762660_at / Fold change /veh 11762660_at / RFU VCAN (11757783_s_at) / Fold change /veh VCAN (11757783_s_at) / RFU DDX43 (11728927_at) / Fold change /veh DDX43 (11728927_at) / RFU KRT8 (11758188_x_at) / Fold change /veh KRT8 (11758188_x_at) / RFU NKD1 (11759106_at) / Fold change /veh NKD1 (11759106_at) / RFU SRD5A1 (11742802_a_at) / Fold change /veh SRD5A1 (11742802_a_at) / RFU TPSAB1 /// TPSB2 (11721975_s_at) / Fold change /veh TPSAB1 /// TPSB2 (11721975_s_at) / RFU GSTM3 (11746129_a_at) / Fold change /veh GSTM3 (11746129_a_at) / RFU IL23R (11737362_x_at) / Fold change /veh IL23R (11737362_x_at) / RFU TMEM51 (11727254_a_at) / Fold change /veh TMEM51 (11727254_a_at) / RFU PIWIL2 (11732686_x_at) / Fold change /veh PIWIL2 (11732686_x_at) / RFU ORM1 (11744905_x_at) / Fold change /veh ORM1 (11744905_x_at) / RFU CCDC152 (11743942_at) / Fold change /veh CCDC152 (11743942_at) / RFU ECM1 (11717891_a_at) / Fold change /veh ECM1 (11717891_a_at) / RFU IL23R (11748794_a_at) / Fold change /veh IL23R (11748794_a_at) / RFU TNFAIP8L3 (11732012_x_at) / Fold change /veh TNFAIP8L3 (11732012_x_at) / RFU MBOAT4 (11741988_at) / Fold change /veh MBOAT4 (11741988_at) / RFU 11764193_at / Fold change /veh 11764193_at / RFU TMEM53 (11763286_at) / Fold change /veh TMEM53 (11763286_at) / RFU MAGEB2 (11727129_at) / Fold change /veh MAGEB2 (11727129_at) / RFU TMEM200A (11744735_a_at) / Fold change /veh TMEM200A (11744735_a_at) / RFU CCDC152 (11751479_a_at) / Fold change /veh CCDC152 (11751479_a_at) / RFU FAM211A (11726209_a_at) / Fold change /veh FAM211A (11726209_a_at) / RFU RGS16 (11746705_a_at) / Fold change /veh RGS16 (11746705_a_at) / RFU VCAN (11755009_s_at) / Fold change /veh VCAN (11755009_s_at) / RFU RHOB (11743442_s_at) / Fold change /veh RHOB (11743442_s_at) / RFU RGS16 (11720943_a_at) / Fold change /veh RGS16 (11720943_a_at) / RFU RGS16 (11720944_at) / Fold change /veh RGS16 (11720944_at) / RFU, VPS4B / Fold change vs veh, VPS4B / RFU, CREB1 / Fold change vs veh, CREB1 / RFU, DNAJC13 / Fold change vs veh, DNAJC13 / RFU, GNAQ / Fold change vs veh, GNAQ / RFU, CDK5R1 / Fold change vs veh, CDK5R1 / RFU, ZRANB3 / Fold change vs veh, ZRANB3 / RFU, CUL4A / Fold change vs veh, CUL4A / RFU, CCNY / Fold change vs veh, CCNY / RFU, UFL1 / Fold change vs veh, UFL1 / RFU, COG3 / Fold change vs veh, COG3 / RFU, DIAPH2 / Fold change vs veh, DIAPH2 / RFU, SKA2 / Fold change vs veh, SKA2 / RFU, AFF3 / Fold change vs veh, AFF3 / RFU, LMF1 / Fold change vs veh, LMF1 / RFU, IPO11 / Fold change vs veh, IPO11 / RFU, DFFB / Fold change vs veh, DFFB / RFU, FOXP1 / Fold change vs veh, FOXP1 / RFU, CARD8 / Fold change vs veh, CARD8 / RFU, STRN3 / Fold change vs veh, STRN3 / RFU, ADK / Fold change vs veh, ADK / RFU, RASSF2 / Fold change vs veh, RASSF2 / RFU, WIPF1 / Fold change vs veh, WIPF1 / RFU, LARP1B / Fold change vs veh, LARP1B / RFU, RASA1 / Fold change vs veh, RASA1 / RFU, RB1 / Fold change vs veh, RB1 / RFU, PPFIA1 / Fold change vs veh, PPFIA1 / RFU, MAT2A / Fold change vs veh, MAT2A / RFU, CCT5 / Fold change vs veh, CCT5 / RFU, WDR92 / Fold change vs veh, WDR92 / RFU, CUX1 / Fold change vs veh, CUX1 / RFU, TTC7A / Fold change vs veh, TTC7A / RFU, TMEM135 / Fold change vs veh, TMEM135 / RFU, DEPTOR / Fold change vs veh, DEPTOR / RFU, CPM / Fold change vs veh, CPM / RFU, DNAJB6 / Fold change vs veh, DNAJB6 / RFU, CACNA2D3 / Fold change vs veh, CACNA2D3 / RFU, DTX4 / Fold change vs veh, DTX4 / RFU, TFCP2 / Fold change vs veh, TFCP2 / RFU, GMCL1 /// GMCL1P1 / Fold change vs veh, GMCL1 /// GMCL1P1 / RFU, AEBP2 / Fold change vs veh, AEBP2 / RFU, SNHG1 /// SNORD22 /// SNORD25 /// SNORD26 /// SNORD27 /// SNORD28 /// SNORD29 /// SNORD31 / Fold change vs veh, SNHG1 /// SNORD22 /// SNORD25 /// SNORD26 /// SNORD27 /// SNORD28 /// SNORD29 /// SNORD31 / Fold change (Aza/veh), C12orf56 (ProbeSet 11735607_a_at) / Fold change (ACY-1035/veh), C12orf56 (ProbeSet 11735607_a_at) / Fold change (Aza/veh), FGFR1OP (ProbeSet 11751329_s_at) / Fold change (ACY-1035/veh), FGFR1OP (ProbeSet 11751329_s_at) / Fold change (Aza/veh), VPS36 (ProbeSet 11739960_a_at) / Fold change (ACY-1035/veh), VPS36 (ProbeSet 11739960_a_at) / RFU SYPL1 (11715823_x_at) / Fold change /veh SYPL1 (11715823_x_at) / RFU IGFBP7 (11715501_s_at) / Fold change /veh IGFBP7 (11715501_s_at) / RFU REEP3 (11722064_at) / Fold change /veh REEP3 (11722064_at) / RFU IGLL1 (11728026_x_at) / Fold change /veh IGLL1 (11728026_x_at): dose or concentration left out as unconfirmed. As to conditions: MV-4-11 cells, 48 hours.

Structures are written as SMILES.

With `Nc1ccc(-c2cccs2)cc1NC(=O)c1ccc2c(c1)cc(C1CC1)n2CCN1CCOCC1` [ACY-1035], the “Fold change /veh WNT11 (11732464_a_at)” value was 1.11.

The values are drawn from article PMC5218480 (PLoS ONE, 2017).
